US12358907B2, “Substituted pyrrolidine amides III” (GRÜNENTHAL GMBH, priority 2019, dated 2025)

Target: glucocorticoid receptor (GAL4 DBD-GR) (Homo sapiens (Human), UniProt P04150)
Assay: GR cell-based assays (GRE agonist / GRE antagonist), CHO-Gal4/GR luciferase reporter
Conditions: read-out: IC50 or EC50
Source text: Potential selective glucocorticoid receptor modulators of this intervention can be tested for modulation of the activity of the glucocorticoid receptor using cell-based assays. These assays involve a Chinese hamster ovary (CHO) cell line which contains fragments of the glucocorticoid receptor as well as fusion proteins. The glucocorticoid receptor fragments used are capable of binding the ligand (e.g. beclomethasone) to identify molecules that compete for binding with glucocorticoid receptor ligands. In more detail, the glucocorticoid receptor ligand binding domain is fused to the DNA binding domain (DBD) of the transcription factor GAL4 (GAL4 DBD-GR) and is stably integrated into a CHO cell line containing a GAL4-UAS-Luciferase reporter construct. […] After cell lysis the luminescence that is produced by luciferase after addition of the substrate is detected and EC50 or IC50 values can be calcuated. Engagement of molecules which induce gene expression via glucocortocoid receptor binding to the DNA leads to expression of the luciferase gene under the control of the fusion protein GAL4 DBD-GR and therefore to a dose-dependent increase of the luminescence signal. Binding of molecules which repress beclomethasone-induced gene expression of the luciferase gene under the control of the fusion protein GAL4 DBD-GR leads to a dose-dependent reduction of the luminescence signal.
The reporter cell line CHO-Gal4/GR consisted of a chinese hamster ovary (CHO) cell line (Leibniz Institute DSMZ—German Collection of Microorganisms and Cell Cultures GmbH: ACC-110) containing a firefly luciferase gene under the control of the GR ligand binding domain fused to the DNA binding domain (DBD) of GAL4 (GAL4 DBD-GR) stably integrated into CHO cells. This cell line was established by stable transfection of CHO cells with a GAL4-UAS-Luciferase reporter construct. In a subsequent step the ligand binding domain of the GR cloned into pIRES2-EGFP-GAL4 containing the DNA binding domain of GAL4 from pFA-AT2 was transfected. This fusion construct activated firefly luciferase expression under the control of a multimerized GAL4 upstream activation sequence (UAS). The signal of the emitted luminescence was recorded by the FLIPR^TETRA. This allowed for specific detection of ligand-induced activation of the GR and therefore for the identification of compounds with agonistic properties. The GAL4/UAS reporter was premixed with a vector that constitutively expressed Renilla luciferase, which served as an internal positive control for transfection efficiency.
The complete culture medium for the assay was: • DMEM F-12 (1:1) MIXTURE (LONZA cat. No: BE04-687F/U1) 500 mL • 5 mL of 100 mM Sodium Pyruvate (LONZA cat. No: BE12-115E) • 25 mL of 7.5% Sodium Bicarbonate (LONZA cat. No BE17-613E) • 6.5 mL of 1 M Hepes (LONZA cat. No: BE17-737E) • 5 mL of 100× Penicillin/Streptomycin (LONZA cat. No DE17-602E) • 50 mL of Fetal Bovine Serum (Euroclone cat. No ECS 0180L) • 0.25 mL of 10 mg/mL Puromycin (InvivoGen cat.: ant-pr-1) • 0.5 mL of 100 mg/mL Zeocin (InvivoGen cat.: ant-zn-1)
Cryo-preserved CHO-Gal4/GR cells were suspended in complete medium and 5000 cells/25 μl/well were seeded into the wells of 384-well polystyrene assay plates (Thermo Scientific, cat. #4332) and cultured at 37° C., 5% CO2 and 95% humidity. After 24 hours growth medium was carefully removed and replaced by 30 μl Opti-MEM (GIBCO, cat. #31985062) as assay buffer. To test the compounds an 8-point half-log compound dilution curve was generated in 100% DMSO starting from a 2 mM stock and compounds were then diluted 1:50 in Opti-MEM. 10 μl of compounds were then added to the wells containing 30 μl Opti-MEM resulting in a final assay concentration range from 10 μM to 0.003 μM in 0.5% DMSO. Compounds were tested at 8 concentrations in quadruplicate data points. […] Finally, cells were lysed with 20 μl of Triton/Luciferin solution and the signal of the emitted luminescence was recorded at the FLIPR^TETRA for 2 minutes. […]

Sequence of glucocorticoid receptor (GAL4 DBD-GR) (P04150 524-758): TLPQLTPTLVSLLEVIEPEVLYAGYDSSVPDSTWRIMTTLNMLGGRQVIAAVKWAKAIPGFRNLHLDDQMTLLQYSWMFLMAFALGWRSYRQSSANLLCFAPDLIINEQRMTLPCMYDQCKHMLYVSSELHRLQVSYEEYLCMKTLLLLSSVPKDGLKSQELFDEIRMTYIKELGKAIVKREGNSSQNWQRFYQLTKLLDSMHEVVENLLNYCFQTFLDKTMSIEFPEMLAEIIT

| SMILES | IC50 [nM] |
| --- | --- |
| Cc1cccc([C@@H]2[C@@H](NC(=O)c3ccn(C)n3)[C@H](C)C(=O)N2c2ccc3c(cnn3-c3ccc(F)cc3)c2)c1 (racemic) [Example 75, N-[rac-(2R,3S,4S)-1-[1-(4-Fluorophenyl)-1H-indazol-5-yl]-4-methyl-2-m-tolyl-5-oxo-pyrrolidin-3-yl]-1-methyl-1H-pyrazole-3-carboxylic acid amide] | < 100 |
| Cc1cccc([C@@H]2[C@@H](NS(C)(=O)=O)[C@@H](C)C(=O)N2c2ccc3c(cnn3-c3ccc(F)cc3)c2)c1 (racemic) [Example 76, N-[rac-(2R,3S,4R)-1-[1-(4-Fluorophenyl)-1H-indazol-5-yl]-4-methyl-2-m-tolyl-5-oxo-pyrrolidin-3-yl]-methanesulfonic acid amide] | < 100 |
| Cc1cccc([C@@H]2[C@@H](NC(=O)C(C)(F)F)[C@@H](C)C(=O)N2c2ccc3c(cnn3-c3ccc(F)cc3)c2)c1 (racemic) [Example 77, 2,2-Difluoro-N-[rac-(2R,3S,4R)-1-[1-(4-fluorophenyl)-1H-indazol-5-yl]-4-methyl-2-m-tolyl-5-oxo-pyrrolidin-3-yl]-propionamide] | < 100 |
| COc1ccc([C@@H]2[C@@H](NC(=O)c3scnc3C)[C@H](C)C(=O)N2c2ccc3c(cnn3-c3ccc(F)cc3)c2)cc1 (racemic) [Example 82, N-[rac-(2R,3S,4S)-1-[1-(4-Fluorophenyl)-1H-indazol-5-yl]-2-(4-methoxyphenyl)-4-methyl-5-oxo-pyrrolidin-3-yl]-4-methyl-thiazole-5-carboxylic acid amide] | 100 to 1000 |
| COc1ccc([C@@H]2[C@@H](NC(=O)c3ccn(C)n3)[C@H](C)C(=O)N2c2ccc3c(cnn3-c3ccc(F)cc3)c2)cc1 (racemic) [Example 83, N-[rac-(2R,3S,4S)-1-[1-(4-Fluorophenyl)-1H-indazol-5-yl]-2-(4-methoxyphenyl)-4-methyl-5-oxo-pyrrolidin-3-yl]-1-methyl-1H-pyrazole-3-carboxylic acid amide] | < 100 |
| COc1ccc([C@@H]2[C@@H](NC(=O)c3cccnc3)[C@H](C)C(=O)N2c2ccc3c(cnn3-c3ccc(F)cc3)c2)cc1 (racemic) [Example 84, N-[rac-(2R,3S,4S)-1-[1-(4-Fluorophenyl)-1H-indazol-5-yl]-2-(4-methoxyphenyl)-4-methyl-5-oxo-pyrrolidin-3-yl]-pyridine-3-carboxylic acid amide] | 100 to 1000 |
| COc1ccc([C@@H]2[C@@H](NC(=O)c3ncccn3)[C@H](C)C(=O)N2c2ccc3c(cnn3-c3ccc(F)cc3)c2)cc1 (racemic) [Example 85, N-[rac-(2R,3S,4S)-1-[1-(4-Fluorophenyl)-1H-indazol-5-yl]-2-(4-methoxyphenyl)-4-methyl-5-oxo-pyrrolidin-3-yl]-pyrimidine-2-carboxylic acid amide] | 100 to 1000 |
| C[C@H]1C(=O)N(c2ccc3c(cnn3-c3ccc(F)cc3)c2)[C@H](c2ccccc2Cl)[C@H]1NS(C)(=O)=O (racemic) [Example 86, N-[rac-(2R,3S,4R)-2-(2-Chlorophenyl)-1-[1-(4-fluorophenyl)-1H-indazol-5-yl]-4-methyl-5-oxo-pyrrolidin-3-yl]-methanesulfonic acid amide] | < 100 |
| C[C@H]1C(=O)N(c2ccc3c(cnn3-c3ccc(F)cc3)c2)[C@H](c2ccccc2Cl)[C@H]1NC(=O)c1cccnc1 (racemic) [Example 87, N-[rac-(2R,3S,4R)-2-(2-Chlorophenyl)-1-[1-(4-fluorophenyl)-1H-indazol-5-yl]-4-methyl-5-oxo-pyrrolidin-3-yl]-pyridine-3-carboxylic acid amide] | < 100 |

Next, values leading:

| IC50 [nM] | SMILES |
| --- | --- |
| < 100 | C[C@H]1C(=O)N(c2ccc3c(cnn3-c3ccc(F)cc3)c2)[C@H](c2ccccc2Cl)[C@H]1NC(=O)c1ncccn1 (racemic) [Example 88, N-[rac-(2R,3S,4R)-2-(2-Chlorophenyl)-1-[1-(4-fluorophenyl)-1H-indazol-5-yl]-4-methyl-5-oxo-pyrrolidin-3-yl]-pyrimidine-2-carboxylic acid amide] |
| 1000 to 15000 | CC[C@@H]1[C@@H](NC(=O)c2ncccn2)[C@H](Cc2ccccc2)C(=O)N1c1ccc2c(cnn2-c2ccc(F)cc2)c1 (racemic) [Example 90, N-[rac-(2R,3S,4S)-4-Benzyl-2-ethyl-1-[1-(4-fluorophenyl)-1H-indazol-5-yl]-5-oxo-pyrrolidin-3-yl]-pyrimidine-2-carboxylic acid amide] |
| 1000 to 15000 | CC[C@@H]1[C@@H](NS(C)(=O)=O)[C@H](Cc2ccccc2)C(=O)N1c1ccc2c(cnn2-c2ccc(F)cc2)c1 (racemic) [Example 91, N-[rac-(2R,3S,4S)-4-Benzyl-2-ethyl-1-[1-(4-fluorophenyl)-1H-indazol-5-yl]-5-oxo-pyrrolidin-3-yl]-methanesulfonic acid amide] |
| < 100 | C[C@@H]1C(=O)N(c2ccc3c(cnn3-c3ccc(F)cc3)c2)[C@H](c2ccccc2Cl)[C@H]1NC(=O)c1cccnc1 (racemic) [Example 92, N-[rac-(2R,3S,4S)-2-(2-Chlorophenyl)-1-[1-(4-fluorophenyl)-1H-indazol-5-yl]-4-methyl-5-oxo-pyrrolidin-3-yl]-pyridine-3-carboxylic acid amide] |
| < 100 | C[C@@H]1C(=O)N(c2ccc3c(cnn3-c3ccc(F)cc3)c2)[C@H](c2ccccc2Cl)[C@H]1NS(C)(=O)=O (racemic) [Example 93, N-[rac-(2R,3S,4S)-2-(2-Chlorophenyl)-1-[1-(4-fluorophenyl)-1H-indazol-5-yl]-4-methyl-5-oxo-pyrrolidin-3-yl]-methanesulfonic acid amide] |
| < 100 | CC1C(=O)N(c2ccc3c(cnn3-c3ccc(F)cc3)c2)C(c2ccccc2Cl)C1NC(=O)c1ccn(C)n1 (racemic) [Example 94, N-[rac-(2R,3S,4R)-2-(2-Chlorophenyl)-1-[1-(4-fluorophenyl)-1H-indazol-5-yl]-4-methyl-5-oxo-pyrrolidin-3-yl]-1-methyl-1H-pyrazole-3-carboxylic acid amide] |
| < 100 | COc1ccc([C@@H]2[C@@H](NC(=O)C(C)(F)F)[C@H](C)C(=O)N2c2ccc3c(cnn3-c3ccc(F)cc3)c2)cc1 (racemic) [Example 98, 2,2-Difluoro-N-[rac-(2R,3S,4S)-1-[1-(4-fluorophenyl)-1H-indazol-5-yl]-2-(4-methoxyphenyl)-4-methyl-5-oxo-pyrrolidin-3-yl]-propionamide] |
| < 100 | CC(F)(F)C(=O)N[C@H]1CC(=O)N(c2ccc3c(cnn3-c3ccc(F)cc3)c2)[C@]1(C)c1ccccc1 (racemic) [Example 100, 2,2-Difluoro-N-[rac-(2R,3S)-1-[1-(4-fluorophenyl)-1H-indazol-5-yl]-2-methyl-5-oxo-2-phenyl-pyrrolidin-3-yl]-propionamide] |
| 100 to 1000 | C[C@@]1(c2ccccc2)[C@@H](NC(=O)C2CC2)CC(=O)N1c1ccc2c(cnn2-c2ccc(F)cc2)c1 (racemic) [Example 101, N-[rac-(2R,3S)-1-[1-(4-Fluorophenyl)-1H-indazol-5-yl]-2-methyl-5-oxo-2-phenyl-pyrrolidin-3-yl]-cyclopropanecarboxylic acid amide] |
| 1000 to 15000 | CC[C@@H]1[C@@H](NC(=O)c2ccn(C)n2)[C@H](Cc2ccccc2)C(=O)N1c1ccc2c(cnn2-c2ccc(F)cc2)c1 (racemic) [Example 104, N-[rac-(2R,3S,4S)-4-Benzyl-2-ethyl-1-[1-(4-fluorophenyl)-1H-indazol-5-yl]-5-oxo-pyrrolidin-3-yl]-1-methyl-1H-pyrazole-3-carboxylic acid amide] |
